Peptide text beside a SMILES is read from it. * marks the point of attachment. βGlc = OC[C@H]1O[C@@H](*)[C@H](O)[C@@H](O)[C@@H]1O
Legend:
Sprague Dawley rats = experiment: 28-day repeat-dose subcutaneous toxicology study (main and recovery) in Sprague Dawley rats; assay type: in vivo, rat
Method: Rats used in studies were inspected upon receipt for good health and were acclimated for 7 days at a minimum. Male and female rats were randomly selected for one of the four treatment groups upon receipt. Group 1 rats received vehicle control (0.9 % sodium chloride (saline) for injection, USP) subcutaneously for 28 days. Rats in groups 2–4 received PNA5 at 1, 5, or 40 mg/kg/day subcutaneously for 28 days (Table 1). Rats for all studies were dosed once daily for 28 consecutive days via subcutaneous bolus injection. The first day of dosing was based on day 1 body weights. Toxicokinetic study animals were dosed in the same fashion as for the main and recovery study animals.
Rats are observed at least twice daily (morning and afternoon) beginning upon arrival through termination/release for mortality. For the toxicology main study, 10 rats per sex were randomly assigned to groups 1–4. 5 rats per sex were assigned to groups 1 (control) and group 4 (PNA5 at 40 mg/kg/day) for the toxicology recovery study. The number of animals used for the toxicokinetic groups was calculated to meet a sufficient number of animals to provide samples for toxicokinetic analysis while minimizing the number of blood collections per animal.
After 28 treatments, animals that were a part of the main and toxicokinetic study were scheduled for euthanasia on day 29, during which the necropsy measures were collected for the main study animals. Rats that were a part of the recovery animal study started the recovery period on day 29 and were scheduled for euthanasia on day 57, during which the same necropsy measures were collected. Animals were euthanized for humane reasons or at study termination via carbon dioxide inhalation followed by exsanguination via the vena cava for necropsy. Main Study and Recovery animals were fasted overnight prior to the scheduled necropsy. Following the final blood collection, animals in the toxicokinetic studies were euthanized by inhalation of carbon dioxide but were not exsanguinated for necropsy.
The following parameters and end points were evaluated in this study: mortality, clinical observations, body weights, body weight gains, food consumption, ophthalmology, clinical pathology parameters (hematology, coagulation, clinical chemistry, and urinalysis), toxicokinetic parameters, organ weights, and macroscopic and microscopic examinations.
Animals were observed daily. On days with dosing, observations were made 10–30 min postdosing. During the dosing, observations included but were not limited to the following: Changes in skin on the whole animal and at the injection site, fur, eyes, mucous membrane, and respiratory functions.
A detailed clinical observation was performed 1 week prior to randomization, on the date of randomization, and then weekly during the study period, with the last observation on the day of the scheduled necropsy.
The injection site was shaved and marked for identification and evaluation during the study. The injection site was collected at necropsy.
Rats were weighed within 4 days of receipt, on the day of randomization, daily during the study, and on the day of the scheduled necropsies. Dogs were weighed one week prior to randomization (± 2 days), on the day of randomization, on Day 1 (prior to dosing), weekly (± 2 days) during the study period, on the day prior to the scheduled necropsies, and on the day of the scheduled necropsy.
Rats' food consumption was measured quantitatively once weekly beginning on Day 1 and persisting throughout the study. Dogs' food consumption was measured daily beginning on Day 1 and persisting throughout the study.
Ophthalmic examinations were conducted by a board-certified veterinary ophthalmologist using an indirect ophthalmoscope and slit lamp biomicroscope. Prior to examination, animals will be treated with a mydriatic agent. […]

male Sprague Dawley rats [1] = experiment: Pulmonary safety parameters after a single subcutaneous dose in male Sprague Dawley rats; assay type: in vivo, rat; settings: single s.c. dose 1, 5 or 40 mg/kg, n = 8 per group
Method: Respiratory rate, tidal volume, and calculated minute volume were measured in male Sprague Dawley rats to measure pulmonary safety parameters after a single subcutaneous dose of 0, 1, 5, or 40 mg/kg PNA5 (n = 8 males per group).

male Sprague Dawley rats [2] = experiment: Neurobehavioral evaluations after a single subcutaneous dose in male Sprague Dawley rats; assay type: in vivo, rat; settings: single s.c. dose 1, 5 or 40 mg/kg, n = 8 per group
Method: To evaluate the effects of PNA5 when administered subcutaneously on the central nervous system’s autonomic, neuromuscular, sensorimotor, and behavioral domains, neurobehavioral evaluations were performed in male Sprague Dawley rats treated with PNA5 at 0, 1, 5, or 40 mg/kg (n = 8 males per group). The neurobehavioral evaluations consisted of assessments of the central nervous system for activity, excitability, autonomic function, neuromuscular function, sensorimotor responses, and physiological function.

male Beagle dogs = experiment: Cardiovascular safety evaluation after a single subcutaneous dose in male Beagle dogs; assay type: in vivo, dog; settings: single s.c. injection 1, 5 or 20 mg/kg
Method: PNA5 -related cardiovascular effects were evaluated in male Beagle dogs at dose levels of 1, 5, or 20 mg/kg. To evaluate the effects of PNA5 when administered subcutaneously on the cardiovascular system the following parameters were measured including clinical observations, heart rate, arterial blood pressure (systolic, diastolic, and mean), pulse pressure, body temperature, and ECG waveforms (from which ECG waveform morphologies and ECG intervals PR, QRS, QT, and heart rate corrected QT [QTc] were derived).

Beagle dogs = experiment: 28-day repeat-dose subcutaneous toxicology study (main and recovery) in Beagle dogs
[3] = rats, 1, 5, 40 mg/kg/day s.c. for 28 days
[4] = rats, main study, day 29 necropsy
[5] = rats, recovery study, 40 mg/kg/day vs control
[6] = dogs, 1, 5, 20 mg/kg/day s.c. for 28 days
[7] = dogs, main study, day 29 necropsy

SMILES: CC[C@H](C)[C@H](NC(=O)[C@H](Cc1ccc(O)cc1)NC(=O)[C@@H](NC(=O)[C@H](CCCNC(=N)N)NC(=O)[C@@H](N)CC(=O)O)C(C)C)C(=O)N[C@@H](Cc1c[nH]cn1)C(=O)N[C@@H](CO[C@@H]1O[C@H](CO)[C@@H](O)[C@H](O)[C@H]1O)C(N)=O [PNA5, Ang-1–6-Ser-O-Glu-NH2] (H-DRVYIHS(βGlc)-NH2)
- tolerability (mortality, adverse findings) (Sprague Dawley rats; Sprague-Dawley rats, main and recovery studies, s.c. bolus once daily 28 days, 1, 5, 40 mg/kg/day): well tolerated at all doses with no effects on mortality or adverse findings
- mixed cell infiltration at the subcutaneous dorsoscapular injection site (Sprague Dawley rats; rats, 40 mg/kg/day group females, main study, considered within the expected response to the injection procedure): increase in incidence and severity of mixed cell infiltration
- prostate/seminal vesicle weight normalized to body weight or brain weight vs control (Sprague Dawley rats; rats, 40 mg/kg/day group males, recovery study, considered incidental, absolute weights not different): significantly higher
- body weights and body weight gains (Sprague Dawley rats; [3]): unaffected
- food consumption (Sprague Dawley rats; [3]): unaffected
- clinical observations (Sprague Dawley rats; rats, 1, 5, 40 mg/kg/day subq for 28 days, main and recovery study): no test article-related clinical observations
- survival (Sprague Dawley rats; rats, 1, 5 and 40 mg/kg/day s.c. for 28 days): All animals survived until the scheduled euthanasia
- ophthalmic examinations (Sprague Dawley rats; rats, all test article-treated groups): No ophthalmic lesions indicative of toxicity were observed
- hematology, coagulation, clinical chemistry and urinalysis parameters (Sprague Dawley rats; rats, main study, all dose levels): unaffected
- macroscopic findings (Sprague Dawley rats; [4]): no test article-related macroscopic findings
- microscopic findings (Sprague Dawley rats; [4]): no test article-related microscopic findings
- organ weights (Sprague Dawley rats; [4]): no test article-related organ weight changes
- microscopic findings (Sprague Dawley rats; rats, recovery study): No test article-related microscopic findings were noted
- macroscopic findings (Sprague Dawley rats; [5]): no test article-related macroscopic findings
- organ weights (Sprague Dawley rats; [5]): no test article-related organ weight changes
- respiratory rate, tidal volume and calculated minute volume (male Sprague Dawley rats [1]): no effect
- neurobehavioral assessments of the central nervous system (activity, excitability, autonomic, neuromuscular, sensorimotor, physiological function) (male Sprague Dawley rats [2]): nor were there observed PNA5-related effects
- clinical observations, heart rate, arterial blood pressure, pulse pressure, body temperature and ECG waveforms (male Beagle dogs): no effect
- tolerability (mortality, adverse findings) (Beagle dogs; Beagle dogs, main and recovery studies, s.c. bolus once daily 28 days, 1, 5, 20 mg/kg/day): well tolerated at all doses with no effects on mortality or adverse findings
- no-observed-adverse-effect-level (NOAEL) (Beagle dogs; Beagle dogs, s.c. once daily for 28 days): 20 mg/kg/day
- body weights and body weight gains (Beagle dogs; [6]): unaffected
- clinical observations (Beagle dogs; [6]): no test article-related clinical observations
- electrocardiography (Beagle dogs; [6]): no test article-related clinical observations or effects
- food consumption (Beagle dogs; [6]): unaffected
- organ weights (Beagle dogs; [6]): no test article-related clinical observations or effects
- survival (Beagle dogs; dogs, 1, 5 and 20 mg/kg/day s.c. for 28 days): All animals survived until the scheduled euthanasia
- ophthalmic examinations (Beagle dogs; dogs, all test article-treated groups): No ophthalmic lesions indicative of toxicity were observed
- hematology, coagulation, clinical chemistry and urinalysis parameters (Beagle dogs; dogs, main study): unaffected
- macroscopic findings (Beagle dogs; [7]): No test article-related macroscopic findings were noted
- microscopic findings (Beagle dogs; [7]): No test article-related microscopic findings were noted
- macroscopic findings (Beagle dogs; dogs, recovery study, day 43): No test article-related macroscopic findings were noted
- microscopic findings (Beagle dogs; dogs, recovery study, day 43): No test article-related microscopic findings were noted
- organ weights (Beagle dogs; dogs, recovery study, day 43): no test article-related organ weight changes
- subcutaneous injection sites with dark red subcutaneous foci (Beagle dogs; dogs, treated group animals, main study, lacked a dose response, considered an effect of subcutaneous injection): 5 of 96
